For orientation: EC50 means the concentration giving half of the maximal effect.

The values that follow come from patent US11685761B2, “Cyclic di-nucleotide compounds as sting agonists” (Merck Sharp & Dohme Corp., priority 2017, dated 2023).

One experiment addresses T1, full-length HAQ STING (Homo sapiens, UniProt Q86WV6, G230A/H232R/R293Q/R71H).
T1 construct: made in house; host or cells: Trichoplusia ni (Hi-Five) insect cells, baculovirus generated in Sf21; crude membranes
In words: 3H-cGAMP filtration binding assay (HAQ STING). The note with it: competition with tritiated cGAMP ligand; T. ni cell membranes overexpressing full-length HAQ STING.

The target in the next experiment is T2, full-length WT STING (Homo sapiens, UniProt Q86WV6, H232R).
T2 construct: made in house; host or cells: Trichoplusia ni insect cells, baculovirus generated in Sf21; crude membranes
T2 sequence (Q86WV6 with tags, fused parts or gaps H232R): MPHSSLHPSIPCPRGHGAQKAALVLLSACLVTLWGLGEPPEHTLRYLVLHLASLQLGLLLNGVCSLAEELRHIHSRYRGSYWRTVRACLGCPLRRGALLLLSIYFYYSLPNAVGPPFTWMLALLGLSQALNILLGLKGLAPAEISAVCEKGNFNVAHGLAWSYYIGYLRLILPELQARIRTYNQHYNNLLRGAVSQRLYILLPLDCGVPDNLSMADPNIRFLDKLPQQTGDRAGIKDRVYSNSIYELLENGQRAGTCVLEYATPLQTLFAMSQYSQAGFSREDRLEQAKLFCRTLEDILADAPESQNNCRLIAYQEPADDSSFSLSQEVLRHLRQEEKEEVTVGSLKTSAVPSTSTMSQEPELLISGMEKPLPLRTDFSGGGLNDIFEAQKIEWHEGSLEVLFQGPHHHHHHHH
The experiment is described as follows: 3H-cGAMP filtration binding assay (WT STING). The note with it: competition with tritiated cGAMP ligand; T. ni cell membranes overexpressing full-length WT STING. The protocol:
The ability of compounds to bind STING is quantified by their ability to compete with tritiated cGAMP ligand for human STING receptor membrane using a radioactive filter-binding assay. The binding assay employs STING receptor obtained from Trichoplusia ni cell membranes (T. ni; Expression Systems, cat #94-002F, www.expressionsystems.com) overexpressing full-length WT STING and tritiated cGAMP ligand.
The basic WT STING filtration assay protocol is as follows:
16 nM of [^3H] c-GAMP ligand was prepared by diluting into assay buffer, and 50 uL of this working stock was manually added to each well of the assay plate. After ligand addition, 2 uL of either titrated test compound, DMSO control (Sigma #276855), or cold cGAMP control was added to the appropriate wells using a BIOMEK FX. The serially titrated compound was prepared on a Hamilton STARPlus CORE in a 96-well plate (Greiner, #651201) using a 1:3 ten-point dose response format. Following compound addition, a 2.2 ug/ml working concentration of STING membrane (SEQ. ID. No. 3) was prepared by diluting concentrated membrane into assay buffer (1×PBS; Invitrogen #SH30028.02) and douncing 7× using a manual tissue homogenizer (Wheaton, #357546). 148 uL of this prepared membrane was then manually added to each well of a 96-well deep-well polypropylene plate (Fisher Scientific, #12-566-121). Compound, ligand, and membrane then incubated for 60 min at RT before the contents of each assay plate were filtered through a 96-well GF/B filter plate (PerkinElmer, #6005250) using a TOMTEC MACH III Cell Harvester equipped with 20 mM HEPES buffer (Fisher Scientific, #BP299500). The filter plates were then dried at 55° C. for 30 min using a pressurized VWR oven before 30 uL of ULTIMA GOLD F scintillate was added to each well. Tritium levels for each reaction well were then measured using a PerkinElmer TopCount plate reader.
After normalization to controls, the percent activity for each compound concentration was calculated by measuring the amount of remaining radioactivity. The plot of percent activity versus the log of compound concentration was fit with a 4-parameter dose response equation to calculate EC50 values.

Experiment [1] relates to IFN-β secretion from THP1 cells. In words: IFN-β secretion in THP1 cell culture (5 h). In kind it is cell-based, human. The note with it: THP1 cells, 5 h incubation, compound at 30 μM, 30 uM cGAMP = 100%; for activation at 30 µM: Homo sapiens, THP-1, 5 h, read-out: % Effect at 30 μM relative to 2′3′-cGAMP. The method, boiled down: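 THP1 cells at 0.8×10^6/mL were incubated with compounds for 5 h at 37 °C, and secreted IFN-β in the supernatant was measured by AlphaLISA. Percent effect was normalised to 30 uM cGAMP (positive) and 0.3% DMSO (negative) controls. EC50 came from a 4-parameter fit.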

T1 sequence (Q86WV6 with tags, fused parts or gaps R71H/G230A/H232R/R293Q): as the sequence (Q86WV6 with tags, fused parts or gaps H232R) above, with R71H, G230A, R293Q counted along it

On to `Nc1nc2c(ncn2[C@@H]2O[C@@H]3CO[P@@](=O)(S)O[C@H]4C[C@H](n5ccc6c(=O)[nH]cnc65)O[C@@H]4CO[P@@](=O)(S)O[C@@H]2C3)c(=O)[nH]1` (single isomer, unassigned) [Example 38], for which the EC50 on full-length HAQ STING is 1 nM; at full-length WT STING, 393 nM. In addition, the activation at 30 µM in experiment [1] worked out at 109%.

For the compound `Nc1nc2c(ncn2[C@@H]2O[C@@H]3COP(=O)(S)O[C@H]4[C@H](F)[C@H](n5ccc6c(=O)[nH]cnc65)O[C@@H]4COP(=O)(S)O[C@@H]2[C@@H]3F)c(=O)[nH]1` (single isomer, unassigned) [Example 40], the EC50 at full-length HAQ STING stood at 5 nM; on full-length WT STING, 2830 nM. Further, the “% Effect at 30 μM relative to 2′3′-cGAMP” value in experiment [1] stood at 150%.

As for `Nc1nc2c(nnn2[C@@H]2O[C@@H]3COP(=O)(S)O[C@H]4C[C@H](n5ccc6c(=O)[nH]cnc65)O[C@@H]4COP(=O)(S)O[C@@H]2C3)c(=O)[nH]1` (single isomer, unassigned) [Example 42], the figures for the EC50 at full-length HAQ STING and on full-length WT STING were 1 nM and 46 nM, respectively. Also, the “% Effect at 30 μM relative to 2′3′-cGAMP” value in experiment [1] came out at 72%.

Regarding `Nc1nc2c(nnn2[C@@H]2O[C@@H]3COP(=O)(S)O[C@H]4C[C@H](n5ccc6c(=O)[nH]cnc65)O[C@@H]4COP(=O)(S)O[C@@H]2C3)c(=O)[nH]1` (single isomer, unassigned) [Example 43], the EC50 amounted to 37 nM at full-length HAQ STING and 148 nM on full-length WT STING. For the same compound, the “% Effect at 30 μM relative to 2′3′-cGAMP” value in experiment [1] came out at 120%.

Take `Nc1ncnc2c1ncn2[C@@H]1O[C@@H]2COP(=O)(S)O[C@H]3[C@H](F)[C@H](n4ccc5c(=O)[nH]cnc54)O[C@@H]3COP(=O)(S)O[C@@H]1C2` (single isomer, unassigned) [Example 46]: the EC50 is 16 nM on full-length HAQ STING and 2400 nM at full-length WT STING. For the same compound, the “% Effect at 30 μM relative to 2′3′-cGAMP” value in experiment [1] is listed as 166%.

Consider `Nc1nc2c(nnn2[C@@H]2S[C@@H]3COP(=O)(S)O[C@H]4[C@H](F)[C@H](n5ccc6c(=O)[nH]cnc65)O[C@@H]4COP(=O)(S)O[C@@H]2[C@@H]3F)c(=O)[nH]1` (single isomer, unassigned) [Example 49], for which the EC50 was 1 nM at full-length HAQ STING and 756 nM on full-length WT STING. The “% Effect at 30 μM relative to 2′3′-cGAMP” value in experiment [1] is given as 163%.

Take `Nc1nc2c(nnn2[C@@H]2S[C@@H]3COP(=O)(S)O[C@H]4[C@H](F)[C@H](n5ccc6c(=O)[nH]cnc65)O[C@@H]4COP(=O)(S)O[C@@H]2[C@@H]3F)c(=O)[nH]1` (single isomer, unassigned) [Example 50]: the values for the EC50 on full-length HAQ STING and on full-length WT STING were 4 nM and 9130 nM, respectively. Besides, the “% Effect at 30 μM relative to 2′3′-cGAMP” value in experiment [1] worked out at 109%.

For `Nc1nc2c(ncn2[C@@H]2O[C@@H]3COP(=O)(S)O[C@H]4C[C@H](n5cc(F)c6c(=O)[nH]cnc65)O[C@@H]4COP(=O)(S)O[C@@H]2[C@@H]3F)c(=O)[nH]1` (single isomer, unassigned) [Example 53], the EC50 turned out to be 167 nM on full-length HAQ STING and 253 nM at full-length WT STING. The activation at 30 µM in experiment [1] came out at 85%.

As to `Nc1ncnc2c1ncn2[C@@H]1O[C@@H]2CO[P@@](=O)(S)O[C@@H]3[C@H](O)[C@@H](CO[P@](=O)(S)O[C@H]2[C@H]1O)O[C@H]3n1ccc(=O)n2ccnc12` [Example 2, 8-[(2S,5R,7R,8R,10R,12aR,14R,15R,15aS,16R)-14-(6-amino-9H-purin-9-yl)-15,16-dihydroxy-2,10-dioxido-2,10-disulfanyloctahydro-12H-5,8-methanofuro[3,2-l][1,3,6,9,11,2,10]pentaoxadiphospha-cyclotetradecin-7-yl]imidazo[1,2-a]pyrimidin-5(8H)-one], the EC50 is 2 nM on full-length HAQ STING and 32 nM at full-length WT STING. Also, the activation at 30 µM in experiment [1] worked out at 44%.

In the case of `Nc1ncnc2c1ncn2[C@@H]1O[C@@H]2CO[P@@](=O)(S)O[C@@H]3[C@H](O)[C@@H](CO[P@](=O)(S)O[C@H]2[C@@H]1F)O[C@H]3n1ccc(=O)n2ccnc12` [Example 3, 8-[(2S,5R,7R,8R,10R,12aR,14R,15S,15aR, 16R)-14-(6-amino-9H-purin-9-yl)-15-fluoro-16-hydroxy-2,10-dioxido-2,10-disulfanyloctahydro-12H-5,8-methanofuro[3,2-l][1,3,6,9,11,2,10]pentaoxadiphosphacyclotetradecin-7-yl]imidazo [1,2-a]pyrimidin-5(8H)-one], the figures for the EC50 on full-length HAQ STING and on full-length WT STING were 140 nM and 1860 nM, respectively. For the same compound, in experiment [1], the activation at 30 µM worked out at 20%.

As for `Nc1ncnc2c1nnn2[C@@H]1O[C@@H]2COP(=O)(S)O[C@@H]3[C@H](O)[C@@H](COP(=O)(S)O[C@H]2[C@@H]1F)O[C@H]3n1ccc(=O)n2ccnc12` (stereo partly drawn) [Example 4], the EC50 came to 59 nM on full-length HAQ STING and 1760 nM at full-length WT STING. Further, the activation at 30 µM in experiment [1] came to 139%.

For `Nc1ncnc2c1ccn2[C@H]1C[C@@H]2O[P@@](=O)(S)OC[C@H]3O[C@@H](n4ccc(=O)n5ccnc45)[C@H](O[P@](=O)(S)OC[C@H]2O1)[C@@H]3O` [Example 5, 8-[(2S,5R,7R,8R,10R,12aR,14R,15aS,16R)-14-(4-amino-7H-pyrrolo[2,3-d]pyrimidin-7-yl)-16-hydroxy-2,10-dioxido-2,10-disulfanyloctahydro-12H-5,8-methanofuro[3,2-l][1,3,6,9,11,2,10]pentaoxadiphosphacyclotetradecin-7-yl]imidazo [1,2-a]pyrimidin-5(8H)-one], the EC50 turned out to be 563 nM on full-length HAQ STING and 10300 nM on full-length WT STING. Besides, the activation at 30 µM in experiment [1] was 39%.

Regarding `Nc1ncnc2c1ncn2[C@@H]1O[C@@H]2CO[P@@](=O)(S)O[C@@H]3[C@H](O)[C@@H](CO[P@@](=O)(S)O[C@H]2[C@@H]1F)O[C@H]3n1ccc(=O)c2nccn21` [Example 13, 5-[(2R,5R,7R,8R,10R,12aR,14R,15S,15aR, 16R)-14-(6-amino-9H-purin-9-yl)-15-fluoro-16-hydroxy-2,10-dioxido-2,10-disulfanyloctahydro-12H-5,8-methanofuro[3,2-l][1,3,6,9,11,2,10]pentaoxadiphosphacyclotetradecin-7-yl]imidazo [1,2-b]pyridazin-8(5H)-one], the EC50 at full-length HAQ STING worked out at 238 nM; on full-length WT STING it was 1960 nM. The activation at 30 µM in experiment [1] was 334%.

As to `Nc1ncnc2c1ncn2[C@@H]1O[C@@H]2CO[P@@](=O)(S)O[C@@H]3C[C@@H](CO[P@@](=O)(S)O[C@H]2[C@@H]1F)O[C@H]3n1ccc(=O)n2ccnc12` [Example 19, 8-[(2R,5S,7R,8R,10R,12aR,14R,15S,15aR)-14-(6-amino-9H-purin-9-yl)-15-fluoro-2,10-dioxido-2,10-disulfanyloctahydro-12H-5,8-methanofuro[3,2-l][11,3,6,9,11,2,10]pentaoxadiphosphacyclotetradecin-7-yl]imidazo[1,2-a]pyrimidin-5(8H)-one], the results for the EC50 on full-length HAQ STING and at full-length WT STING were 208 nM and 902 nM, respectively. The “% Effect at 30 μM relative to 2′3′-cGAMP” value in experiment [1] came out at 7%.

On to `O=c1[nH]cnc2c1ncn2[C@@H]1O[C@@H]2CO[P@@](=O)(S)O[C@@H]3C[C@@H](CO[P@@](=O)(S)O[C@H]2[C@@H]1F)O[C@H]3n1ccc(=O)n2ccnc12` [Example 29, 9-[(2R,5S,7R,8R,10R,12aR,14R,15S,15aR)-15-fluoro-2,10-dioxido-7-(5-oxoimidazo[1,2-a]pyrimidin-8(5H)-yl)-2,10-disulfanyloctahydro-12H-5,8-methanofuro[3,2-l][1,3,6,9,11,2,10]pentaoxadiphosphacyclotetradecin-14-yl]-1,9-dihydro-6H-purin-6-one], for which the values for the EC50 at full-length HAQ STING and at full-length WT STING were 45 nM and 136 nM, respectively. Further, the activation at 30 µM in experiment [1] came to 150%.
